# Assay results: patent publication US11458200B2, “Constructs, agents, and methods for facilitated ablation of cardiac tissue” (priority 2016, dated 2022)
# Entries after “also recorded” stand apart in the source; their conditions may differ.
# Tests used:
# epicardium = assay: Open-chest rodent survival model of epicardial RF ablation after IV quercetin; type: in vivo; settings: for Lesion Depth: 10 mg/kg
# Procedure: Using an open-chest rodent survival model and a custom-made catheter, RF was applied to the epicardium at 3 W for 20 seconds after infusion of a HSP inhibitor, intravenous quercetin (n=20, 10 mg/kg), or control (n=20). Animals were sacrificed at 1 (n=10 each) and 24 hours (n=10 each) after ablation. RFA lesions were stained and analyzed under microscopy.
# adenocarcinoma tumor = settings: combined quercetin and RF energy; cited from earlier work
# myocardium = settings: porcine model; cited from earlier work
# [1] = 24 hours after RFA, 3 W for 20 seconds, IV 10 mg/kg, N 10
SMILES,"ablation lesions analyzed at 1 hour after RFA (epicardium; 1 hour after RFA, IV 10 mg/kg)",Volume (epicardium; [1]),Lesion Depth (epicardium; [1]),"Lesion Depth (epicardium; 24 hours after RFA, 3 W for 20 seconds, IV 10 mg/kg, N 10, listed as quercetin)","lesion volumes (epicardium; 24 hours after ablation, vs 25.7±8.6 control, p=0.01)",adverse events related to HSP inhibition (epicardium; IV 10 mg/kg),microscopy of lesions compared to controls (epicardium; in vivo),HSP expression (adenocarcinoma tumor),apoptosis (adenocarcinoma tumor),tumor destruction (adenocarcinoma tumor),ablation lesion sizes after in vivo injection (myocardium)
"O=c1c(O)c(-c2ccc(O)c(O)c2)oc2cc(O)cc(O)c12 [Quercetin, 3,3′,4′,5,7-pentahydroxyflavone]",did not acutely result in larger ablation lesions,37.6 ± 10.5 µL,1.8 ± 0.3 mm,1.8±0.3 mm,37.6 ± 10.5 µL,No adverse events,larger necrotic cores and border zones,decreased HSP expression,increased apoptosis,larger tumor destruction,–
[Gd] [gadolinium],–,–,–,–,–,–,–,–,–,–,increased lesion sizes; also recorded: larger lesions
